Assay results from US20140193521A1, “Drug Delivery Systems and Method of Reducing Foal Infection by Treating Mares with Gallium Salts” (priority 2011, published 2014).

How the values were obtained:
[1] = Whole blood and serum gallium in horses after gallium nitrate by nasogastric tube / oral dosing; type: in vivo
Experimental: FIG. 1 is a graph showing whole blood concentrations (micromoles/g) of horses in which gallium nitrate was administered daily after pulling blood for two days pre-administration. The horses were treated for five days.
(§1) For example, without limitation, in horses fed the same amount, the blood concentration increased from 0.0000231 micromoles/g to 0.0009004 micromoles/g well below what is needed to kill R. equi in the blood, but is a […] increase in blood concentration over time. Previous in vitro data found anything over 0.050 micromoles/ml killed R. equi in culture, and higher concentrations worked better. Administering oral gallium nitrate to mares daily achieved about 1.5 to 7.1 micromoles of gallium per gram of dry feces. This also led to a reduction in the concentration of R. equi in the feces of the mares.
(§2) For example, without limitations, two adult horses were given a single dose of gallium nitrate by nasogastric tube at a dose of 9.2 mg/kg at 1% gallium nitrate concentration. […] Based on tis work, two more horses were dosed with 9.2 mg/kg of daily for 6 days to determine steady state values. […] There were traces of gallium present in both the red blood cells (“RBC”) and smaller amounts in the serum prior to any medication administration. It appears to concentrate in the RBC and move into the serum. The significance of this is unknown.

[2] = Fecal concentration of gallium in mares given oral gallium nitrate daily; type: in vivo; conditions: 9.2 mg/kg of 1% GaN daily from day 320
Source text: FIG. 3 is a graph showing fecal concentration of gallium in ppm of gram of feces in control mares versus treated.
as §1
To determine the number of virulent colonies on each plate, a modified colony immunoblot method was used, as previously described (E.g., Grimm M B, Cohen N D, Slovis N M, et al. Evaluation of mares from a Thoroughbred breeding farm as a source of Rhodococcus equi for their foals using quantitative culture and a colony immunoblot assay. Am J Vet Res 2007; 68:63-71). Briefly, this procedure entails applying nitrocellulose membranes to culture plates to transfer bacterial surface proteins, blotting the membranes using a murine monoclonal antibody against the vapA protein, and then using a labeled secondary antibody to detect the presence of vapA-positive (i.e. virulent) colonies. […]

virulent R. equi [3] = experiment: Fecal concentration of virulent R. equi in peripartum mares (culture, colony immunoblot); type: in vivo, Rhodococcus equi
Experimental: (§3) As part of a non-limiting example of an embodiment of the invention, the effect of oral GaN on the concentrations of virulent R. equi in the feces of the mares was determined. Twenty-one horses were randomly assigned in a paired block design to ensure that 10 mares were part of the treated group and 11 mares were part of the control group. These twenty-one Arabian mares were treated daily with either oral gallium nitrate or placebo. Fecal samples were collected at day 320 of gestation (time 1), the week before foaling (time 2), and the week after foaling (time 3). Airborne concentration of R. equi were measured in the stall within 6 hours post foaling using a microbial air sampling system into which standard (100-mm) culture plates with a media selective for R. equi have been loaded. This sample size of mares was selected on the basis of power calculations using the following assumptions: (a) significance level of P=0.05; (b) statistical power of 90%; (c) a mean of 1×10^4 colony forming units (cfu) per gram of feces among control mares; (d) a mean of 1×10^3 cfu per gram of feces among principal mares; and (e) standard deviations of 1×10^4 and 1×10^3 for the control and principal groups, respectively. The values for fecal concentrations were made on the basis of prior experiences of a collaborator. The total number of R. equi colonies on a plate was determined by morphologic identification; additionally, 10 colonies identified as R. equi each month were tested by PCR to confirm that the isolates are R. equi.
To determine the number of virulent colonies on each plate, a modified colony immunoblot method was used, as previously described (E.g., Grimm M B, Cohen N D, Slovis N M, et al. Evaluation of mares from a Thoroughbred breeding farm as a source of Rhodococcus equi for their foals using quantitative culture and a colony immunoblot assay. Am J Vet Res 2007; 68:63-71). […]
Concentrations of total R. equi were determined by morphological characteristics. The concentration of virulent R. equi was determined using a modified colony immunoblot method. […]

virulent R. equi [4] = experiment: Virulent R. equi in feces of mares by real-time TaqMan PCR of vapA gene; type: in vivo, Rhodococcus equi
Experimental: As part of a non-limiting example of an embodiment of the invention, virulent R. equi in feces was measured in the feces using the following method. Two milliliters of PBS were added to 1 g of each fecal sample in a conical tube. Thereafter, each sample was vortexed for 10 seconds and centrifuged at 13,000× g for 1 minute. In order to minimize contamination, all pipetting steps were performed in a laminar flow cabinet. Nucleic acid purification from 180 μl of supernatant fluid was performed using an automated nucleic acid extraction system (CAS-1820 X-tractor Gene, Corbett Life Science, Sydney, Australia) according to the manufacturer's recommendations. A real-time TaqMan PCR assay for R. equi has been established and validated. The assay is based on the detection of a specific 75 base-pair long product of the vapA gene of R. equi (GenBank accession number AF116907; oligonucleotides: forward primer […], reverse primer […], probe […]). Each PCR reaction contained 400 nM of each primer, 80 nM of the TaqMan probe and mastermix (TaqMan Universal PCR Mastermix, Applied Biosystems, Foster City, Calif.) and 1 μL of the gDNA sample in a final volume of 12 μL. […] DNA extraction and amplification efficiency were verified by quantitating the universal bacterial 16S rRNA gene. Absolute quantitation of R. equi target molecules was performed using a standard curve and expressed as R. equi vapA target genes per 1 g of feces. […]
The number of CFU/g of either virulent R. equi in feces was estimated using real-time PCR. Because these samples were collected serially from individual mares, these longitudinal data were analyzed using mixed-effects modeling, with time (number of days since last known breeding date) and treatment group modeled as fixed effects, and individual mare modeled as a random effect. […] The count of positive samples were determined for each mare, and Poisson regression analysis was used to examine the effects of treatment. […]

R. equi [5] = experiment: Airborne concentration of R. equi in foaling stalls shortly after foaling; type: in vivo, Rhodococcus equi; conditions: stall air after foaling
Experimental: as §3, with “This sample size of mares was selected on the basis of power calculations using the following assumptions: (a) significance level of P=0.05; (b) statistical power of 90%; (c) a mean of 1×10^4 colony forming units (cfu) per gram of feces among control mares; (d) a mean of 1×10^3 cfu per gram of feces among principal mares; and (e) standard deviations of 1×10^4 and 1×10^3 for the control and principal groups, respectively. The values for fecal concentrations were made on the basis of prior experiences of a collaborator.” left out
As part of a non-limiting example of an embodiment of the invention, the following method was employed to determine the effect of oral GAN on the airborne concentration of virulent R. equi in foaling stalls shortly after birth. […] The number of total and virulent R. equi counted on each plate represented the airborne concentrations (cfu/1,000 liters of air). […]

[6] = Safety / adverse effects of gallium nitrate in horses; type: in vivo
Experimental: as §2

R. equi [7] = conditions: cited from earlier work
R. equi [8] = conditions: reported; cited from earlier work
[9] = pregnant mice, cited from earlier work
[10] = 300 to 1500 mg/kg intraperitoneally; cited from earlier work
[11] = administered to the foal; cited from earlier work
R equi = conditions: administered to the foal; cited from earlier work

O=[N+]([O-])[O-].O=[N+]([O-])[O-].O=[N+]([O-])[O-].[Ga+3] [gallium nitrate]
whole blood concentrations following gallium nitrate administration (FIG. 1) ([1]; 9.2 mg/kg daily for 6 days, two horses): increased | increase in blood concentration over time ([1]; horses): 250% | blood concentration of gallium, starting value ([1]; horses, value the concentration increased from): 0.0000231 µmol/g | blood concentration of gallium, after feeding ([1]; horses, value the concentration increased to): 0.0009004 µmol/g | time of peak gallium in whole blood and serum ([1]; single dose 9.2 mg/kg, 1% gallium nitrate, nasogastric tube): around 24 hours | time by which absorption of gallium was demonstrated ([1]; single dose 9.2 mg/kg, 1% gallium nitrate, nasogastric tube, whole blood and serum): ≤ 6 h | fecal concentration of gallium, treated versus control mares (FIG. 3) [2]: significant increase | concentration of R. equi in the feces of the mares (virulent R. equi [3]; oral gallium nitrate daily): reduction | concentrations of virulent R. equi in feces, treatment group compared to control (virulent R. equi [3]; time 3, week after foaling, P<0.05): significantly lower | concentrations of virulent R. equi in feces, time 3 versus time 1 in treatment group (virulent R. equi [3]; week after foaling versus day 320 of gestation, P<0.05): significantly (P<0.05) lower | highest level of virulent R. equi in feces in any treated mare (virulent R. equi [4]): 17,500 CFU/g | level of virulent R. equi in feces in most treated mares (virulent R. equi [4]): ≤ 1,600 CFU/g | level of virulent R. equi in feces in several treated mares (virulent R. equi [4]): almost undetectable levels | treated mares with positive airborne samples (R. equi [5]): 2 of 10 | adverse effects in dosed horses ([6]; 9.2 mg/kg single dose or daily for 6 days): None of the horses showed any adverse effects | adverse effects in pregnant mares ([6]; from conception through foaling): no demonstrable adverse effects | adverse event claims in field use ([6]; used in over 10,000 horses): not been a single claim of any adverse event | concentration that killed R. equi in culture (R. equi [7]; previous in vitro data): over 0.050 micromoles/ml | effect on growth of R. equi grown in media (R. equi [7]; reported): significant inhibition in growth and to even kill R. equi | R. equi growth in experimentally infected mice (R. equi [8]): decrease R. equi growth | adverse effects in the fetus ([9]; 50 mg/kg and below): no adverse effects | fetal malformations ([9]; 100 mg/kg): cleft palate and renal hypoplasia were increased | effect on regeneration of bone and cartilage [10]: dose dependent effect

Cc1occc(=O)c1[O-].Cc1occc(=O)c1[O-].Cc1occc(=O)c1[O-].[Ga+3] [Gallium maltolate]
gallium serum concentration [11]: increased | cumulative incidence of R equi pneumonia, control versus treated groups (R equi): no significant differences
